Data set [1] has as its system A549 cells. The data set can be described thus: cell competition experiment using 14C-ornithine as tracer. The format is cell-based, human. The settings on record: 0.1 μCi 14C-ornithine tracer, compound 1 mM, incubation 10 min. The method, then:
(3R)-3-fluoro-L-ornithine-dihydrochloride (31) was used in a cell competition experiment using ^14C-ornithine as tracer.
FIG. 3: The specificity of (3R)-3-fluoro-L-ornithine-dihydrochloride (31) to compete for ^14C-Ornithine uptake was determined in a cell competition experiment in A549 cells. (0.1 μCi ^14C-Ornithine was used as tracer, (3R)-3-fluoro-L-ornithine-dihydrochloride was used at a concentration of 1 mM, incubation period 10 min).

The conditions of data set [2]: Welch et al. 1986; cited from earlier work.
Data set [3] relates to A549 tumor cells. Description: retention of activity in tumor cells under efflux conditions. The format is cell-based, human. The note with it: A549 cells loaded 30 min with 0.25 MBq, then 30 min in new buffer (efflux conditions). The method, then:
In a third experiment, the retention of activity in tumor cells was examined. A549 cells were incubated with (4S)-[^18F]-fluoro-L-ornithine for 30 min. After this time, cells were incubated with new buffer (without radiotracer) for up to 30 min. The release of radioactivity into the supernatant as well as the retention inside the cells was examined. It was discovered, that approximately 66% of activity were retained in the tumor cells after 30 min under efflux conditions (FIG. 6).
FIG. 6: Examination of retention of (4S)-[^18F]-fluoro-L-ornithine (29) in A549 tumor cells. A549 cells were loaded with 0.25 MBq (4S)-[^18F]-fluoro-L-ornithine for 30 min in PBS. After washing, the cells were incubated with new buffer (without activity) for additional 10, 20, 30 min. The release of radioactivity into the supernatant as well as the retention inside the cells was determined.

A further data set deals with PC3 cells. The data set can be described thus: time dependence of uptake of tracer (29), cell-bound fraction. The note with it: 0.25 MBq, 60 min incubation. The format is cell-based. As to the method: (§1) In a second experiment, A549 and PC3 cells were incubated with (4S)-[^18F]-fluoro-L-ornithine for up to 60 min and the cell-bound fraction was determined. Approximately 5% of applied dose was taken up by the cells during the 60 min incubation period (FIG. 5).
(§2) FIG. 5: The time dependence of uptake of (4S)-[^18F]-fluoro-L-ornithine(29) was determined. (A549 and PC3 cells were incubated with 0.25 MBq (4S)-[^18F]-fluoro-L-ornithine for up to 60 min and the cell-bound fraction was determined after 10, 20, 30 and 60 min)

Data set [4] relates to A549 cells. Described as above. The format is cell-based, human. The note with it: 0.25 MBq, 60 min incubation. The method, then: as §1, §2
A further data set relates to PC3 tumor cells. Description: cell competition experiment, uptake of tracer (29) against excess L-ornithine. The format is cell-based. The settings on record: 0.25 MBq tracer, 1 mM L-ornithine, incubation 30 min. As to the method: (§3) To determine the specificity of (4S)-[^18F]-fluoro-L-ornithine (29), the fluorinated compound was used as tracer in a cell competition experiment in A549 as well as PC3 tumor cells against an excess of L-Ornithine (1 mM).
(§4) FIG. 4: The specificity of (4S)-[^18F]-fluoro-L-ornithine (29) for uptake into tumor cells was determined in cell competition experiments using A549 as well as PC3 tumor cells. (0.25 MBq of (4S)-[^18F]-fluoro-L-ornithine was used as tracer, an excess of 1 mM L-ornithine was used for saturation of uptake systems, incubation time 30 min).

Data set [5] deals with NCI-H460 (human NSCLC) tumor bearing rats. The data set can be described thus: radioactivity in removed organs after the PET-imaging study (biodistribution). The settings on record: 98 min p.i. The format is in vivo, rat. The method, then:
(§5) Animal experiments. (4S)-[^18F]-fluoro-L-ornithine was examined in NCI-H460 (human NSCLC) tumor bearing rats using PET-Imaging. PET images were obtained from 45 min after administration of the radiotracer (7.16 MBq) for 30 min. […] After the PET-imaging study (98 min p.i.) the rat was sacrificed, several organs were removed and the amount of radioactivity in tissues was measured.

Data set [6] has the same test system. The data set can be described thus: PET-Imaging in tumor bearing rats. The format is in vivo, rat. The method, then:
as §5
FIG. 7: PET-Imaging of (4S)-[^18F]-fluoro-L-ornithine (29) in H460 tumor bearing rats. 7.16 MBq of radioactive tracer was injected i.v. into rats. PET images were obtained using the Inveon PET/CT scanner from 45 min p.i. for 30 min.

Data set [7] deals with A549 tumor cells. Description: cell competition experiment, uptake of tracer (29) against excess L-ornithine. The format is cell-based, human. The note with it: 0.25 MBq tracer, 1 mM L-ornithine, incubation 30 min. The method, then: as §3, §4
For data set [8], the system named is A549 (human NSCLC) tumor cells. The data set can be described thus: cell competition experiment, uptake of tracer (38) against excess L-ornithine. The note with it: 30 min incubation, 0.25 MBq tracer in PBS, L-ornithine 1 mM. The format is cell-based. The method, then:
(§6) To determine the specificity of (5R)-[^18F]-fluoromethyl-L-ornithine (38), the fluorinated compound was used as tracer in a cell competition experiment in A549 (human NSCLC) as well as H460 (human NSCLC) tumor cells using an excess of L-ornithine (1 mM) for competition.
(§7) FIG. 1: Examination of biological activity of (5R)-[^18F]-fluoromethyl-L-ornithine (38) from in a cell-competition-experiment. (NCI-H460 and A549 cells, 30 min incubation with 0.25 MBq (5R)-[^18F]-fluoromethyl-L-ornithine in PBS-Puffer, concentration of L-ornithine 1 mM).

The test system of data set [9] is H460 (human NSCLC) tumor cells. The description is as above. The note with it: 30 min incubation, 0.25 MBq tracer in PBS, L-ornithine 1 mM. The format is cell-based. As to the method: as §6, §7
The test system of data set [10] is PC3 (prostate) tumor cell line. The data set can be described thus: time-dependence of binding of tracer (38) to tumor cell lines. The format is cell-based. The note with it: 30 min incubation with 0.25 MBq. As to the method:
In a second experiment, the time-dependence of binding of (5R)-[^18F]-fluoromethyl-L-ornithine to several tumor cell lines was determined using A549, H460 as well as PC3 (prostate) and DU145 (prostate) tumor cell lines. After 30 min incubation with 0.25 MBq up to 5% (PC3 cells) of applied dose were bound to the cells (FIG. 2).
FIG. 2: Binding of (5R)-[^18F]-fluoromethyl-L-ornithine (38) to several tumor cell lines. (A549, H460 (both human NSCLC) as well as PC3 and DU145 (both prostate) tumor cell lines were used and incubated with 0.25 MBq (5R)-[^18F]-fluoromethyl-L-ornithine for up to 30 min. The cell-bound fraction of activity was determined after 10 min, 20 min and 30 min.

The mark [11] stands for this setting: PET from 45 min p.i. for 30 min, 7.16 MBq i.v., H460 tumor.

Structures can show the parent of a compound that is named as a salt.

Regarding `NCC[C@@H](F)[C@H](N)C(=O)O` [Example 31, (3R)-3-fluoro-L-ornithine-dihydrochloride], in the data set with A549 cells [1], the “block of uptake of 14C-ornithine” value is listed as “can block uptake of ^14C-ornithine in A549 cells to a large extent”.

Regarding [^18F]fluoro-putricine, the “in-vivo release of free [18F]fluoride” value in data set [2] was “relatively high in-vivo release of free [^18F]fluoride”.

As for `NC[C@@H]([18F])C[C@H](N)C(=O)O` [Example 29, (4S)-[^18F]-fluoro-L-ornithine], the “activity retained in the tumor cells” value in the data set with A549 tumor cells [3] was “approximately 66%”. For the same compound, the “applied dose taken up by the cells” value with PC3 cells and in the data set on A549 cells [4] was “Approximately 5 % of applied dose” in each case. Further, the “uptake of tracer blockable by excess of ornithine” value in the data set on PC3 tumor cells and in the data set on A549 tumor cells [7] was “blockable by excess of ornithine” throughout. Further, in [5] (blood), the radioactivity in blood stood at 0.38 % ID/g. Further, in [5] (bone), the radioactivity in bone was 2.08 % ID/g. Further, the radioactivity in brain in data set [5] (brain) came to 0.24 % ID/g. Also, the radioactivity in heart in data set [5] (heart) stood at 0.44 % ID/g. In data set [5] (kidney), the radioactivity in kidney was determined as 1.18 % ID/g. In [5] (liver), the radioactivity in liver amounted to 0.39 % ID/g. The radioactivity in lung in data set [5] (lung) is recorded as 0.44 % ID/g. For the same compound, the radioactivity in pancreas in data set [5] (pancreas) amounted to 2.47 % ID/g. In addition, in data set [5] (tumor), the radioactivity in tumor is 1.43 % ID/g. Besides, the “injected dose per gram tumor by ROI analyses” value in [6] (setting [11]) is “up to 2.2 % injected dose per gram”. Besides, the “tumor visualization in PET images” value in data set [6] (setting [11]) is “very well visualized”. Moreover, the “defluorination in vivo, uptake of released [F18]-fluoride in the bones” value in data set [6] (later time points of PET study) is on record as “Some partial defluorination”.

In the case of `N[C@@H](C[18F])CC[C@H](N)C(=O)O` [Example 38, (5R)-[^18F]-fluoromethyl-L-ornithine], the “uptake of tracer blockable by excess of L-ornithine” value in data set [8] and in data set [9] was “blockable by excess of L-ornithine” throughout. Moreover, the “applied dose bound to the cells” value in data set [10] is listed as “up to 5 % of applied dose”.

(Values after patent publication US20110250137A1, “RADIOISOTOPE-LABELED LYSINE AND ORNITHINE DERIVATIVES, THEIR USE AND PROCESSES FOR THEIR PREPARATION” (priority 2008, published 2011).)
